# In paper PMC10155127 (Nature microbiology, 2022):
# Test system: E. coli ATCC 25922
# Assay: Time-dependent killing
# Assay type: cell-based
# Conditions: antibiotic at 4x MIC
smiles,measurement,value
"CC1(C)S[C@@H]2[C@H](NC(=O)[C@H](N)c3ccccc3)C(=O)N2[C@H]1C(=O)O [Ampicillin, ampicillin]",c.f.u. in time-dependent killing,fell below the limit of detection
